Earlier results as cited in patent US20260272857A1, “AN ORALLY RAPIDLY DISINTEGRATING TABLET OF PROPRANOLOL AND ITS PROCESS OF PREPARATION” (NOVUMGEN LIMITED, priority 2023, published 2026).
Structures can show the parent of a compound that is named as a salt.

What was measured:
[1] = high permeability and high solubility drug
[2] = in vivo

| BCS class in the Biopharmaceutical classification system [1] | Elimination half-life [2] [h] | Plasma half-life [2] [h] | SMILES |
| --- | --- | --- | --- |
| BCS class I | – | – | CC(C)NCC(O)COc1cccc2ccccc12 (stereo not drawn) [Propranolol hydrochloride] |
| – | 8 | 3 to 6 | CC(C)NCC(O)COc1cccc2ccccc12 (stereo not drawn) [propranolol, 1-naphthalen-1-yloxy-3-(propan-2-ylamino) propan-2-ol] |
